Source: patent US20090142808A1, “NOVEL ENZYME WITH FRUCTOFURANOSIDASE ACTIVITY, WHICH IS USED TO OBTAIN PREBIOTIC OLIGOSACCHARIDES” (Consejo Superior de Investigaciones Cientificas, priority 2005, published 2009)

Legend:
[1] = system: extracellular fraction of X. dendrorhous (fructofuranosidase activity); assay: Fructofuranosidase activity of the cell-free extracellular fraction on different carbohydrates (glucose release, glucose oxidase-peroxidase); type: biochemical, Xanthophyllomyces dendrorhous; details: for Fructofuranosidase activity detected: cell-free fraction, compound used as substrate; for Specific activity: cell-free fraction of culture in maltose minimal medium, 2.37 ODU660 nm
Description: (§1) The cell-free fraction was obtained by centrifugation (F-0) of an X. dendrorhous culture grown at 23° C. and 160 rpm. Fructofuranosidase activity was assayed in this fraction by assessing the release of glucose on different substrates. A colorimetric assay and standard methodology were used. The released glucose was quantified using the glucose oxidase-peroxidase coupled reaction: 0.4 ml of the solution to be assayed was mixed with 0.1 ml of A:B solution (20:1) (A: 0.85 U/ml glucose oxidase, 0.40 U/ml peroxidase in sodium phosphate buffer pH 5; B: 0.6% o-dianisidine). It was incubated for 30 minutes at 37° C. and spectrophotometrically quantified at 450 nm. A standard glucose curve (1 to 100 μg/ml) was used. The fructofuranosidase activity unit is defined in μg/ml min of glucose assessed in the described conditions.
The cell-free fraction, obtained by centrifuging an X. dendrorhous culture in maltose minimal medium, grown to an optical density of 2.37 ODU660 nm, was assayed on different substrates.

[2] = system: X. dendrorhous F-3 fraction (purified fructofuranosidase); assay: Hydrolytic (fructofuranosidase) activity of the purified enzyme F-3 on different substrates; type: biochemical, Xanthophyllomyces dendrorhous; details: for Hydrolytic activity observed: enzyme purified to homogeneity (F-3); for Specific activity: purified protein, 1% substrate
Description: as §1
The hydrolytic activity of the enzyme purified to homogeneity (F-3) following the described process was assayed on different substrates.

[3] = system: purified X. dendrorhous enzyme (F-3); assay: Fructosyltransferase activity: sucrose 600 g/l incubated with purified enzyme at 45° C., HPLC; type: biochemical, Xanthophyllomyces dendrorhous; details: for Composition of the reaction mixture: 45° C., 600 g sucrose/l, 5 U/ml; for composition of the system at the end time: Example 8: 160 hours, 40° C. as printed (heading 45° C.), 200 rpm, FOS = tri- and tetrasaccharides
Description: (§2) A study was carried out using a high concentration of sucrose (600 g/l), conditions which can favor the formation of glycosidic bonds in detriment of hydrolysis. […] On one hand, fructose (peak 1) and glucose (peak 2) are formed as hydrolytic products. On the other hand, two trisaccharides are formed: a majority product (peak 4), which is most likely neokestose [β-D-Fru-(2→6)-α-D-Glu-(1→2)-D-Fru] (since it is the majority transfructosylation product described in X. dendrorhous cultures) and another minor product (peak 5), identified as 1-kestose [α-D-Glu-(1→2)-β-D-Fru(1→2)-β-D-Fru]. Small amounts of different compounds (peaks 6-8) which, taking into account the retention time in the column, are probably tetrasaccharides not yet identified, are furthermore observed. The sucrose which has not yet reacted corresponds to peak 3.
A solution with a high concentration of sucrose (600 g/l) in 0.2 M sodium acetate buffer pH 5.6 was prepared. 5 U/ml of fructofuranosidase (a unit U is the enzymatic activity corresponding to the release of a micromole of reducer sugars per minute using sucrose 100 g/l as a substrate in 0.2 M buffer sodium acetate pH 5.6 at 60° C.) were added. […] Aliquots were extracted at different times, incubated for 5 minutes at 80° C. to inactivate the enzyme, diluted 1:4 (v/v) with water, centrifuged for 5 min at 6000 rpm in an Eppendorf tube with a 0.45 μm filter and analyzed by HPLC liquid chromatography. The profile of the products formed can be seen in FIG. 5. […] Two trisaccharides are obtained: a majority product which is most likely neokestose [β-D-Fru-(2→6)-α-D-Glu-(1→2)-D-Fru] and another minor product identified as 1-kestose [α-D-Glu-(1→2)-β-D-Fru(1→2)-β-D-Fru]. At the end time (160 hours), the composition of the system was: 10.5% fructose, 17.6% glucose, 54.6% sucrose, 17.3% fructooligosaccharides (tri- and tetrasaccharides).

[4] = system: purified X. dendrorhous enzyme (F-3); assay: Fructosyltransferase activity: sucrose 600 g/l incubated with purified enzyme at 60° C., HPLC; type: biochemical, Xanthophyllomyces dendrorhous
Description: as §2
The total percentage (w/w) of fructooligosaccharides after 160 hours of reaction was the 9.7%, value relating to the total carbohydrates in the medium.

[5] = system: Whole X. dendrorhous cells; details: cell suspension in phosphate-citrate buffer, 25° C., 11% sucrose; cited from earlier work
[6] = biological target: X. dendrorhous fructofuranosidase (Phaffia rhodozyma, UniProt B8YJM2); assay: Kinetic characterization of the purified enzyme on sucrose; type: biochemical, Xanthophyllomyces dendrorhous; details: 20 minutes, 20 μl purified enzyme; standard error of the mean ±10
Description: The kinetic characterization of the enzyme purified according to the described process was performed on sucrose. […] The assays were performed in 20 minutes and 20 μl of purified enzyme for each reaction according to the described process.

[7] = 160 h, new catalyst load (5 U) added after 140 hours
[8] = 186 h, new catalyst load (5 U) added after 140 hours
[9] = reaction time 24 h, 600 g sucrose/l, 5 U/ml
[10] = reaction time 140 h, 600 g sucrose/l, 5 U/ml
[11] = reaction time 160 h, 600 g sucrose/l, 5 U/ml

X. dendrorhous fructofuranosidase, sequence (B8YJM2 entry or part of it): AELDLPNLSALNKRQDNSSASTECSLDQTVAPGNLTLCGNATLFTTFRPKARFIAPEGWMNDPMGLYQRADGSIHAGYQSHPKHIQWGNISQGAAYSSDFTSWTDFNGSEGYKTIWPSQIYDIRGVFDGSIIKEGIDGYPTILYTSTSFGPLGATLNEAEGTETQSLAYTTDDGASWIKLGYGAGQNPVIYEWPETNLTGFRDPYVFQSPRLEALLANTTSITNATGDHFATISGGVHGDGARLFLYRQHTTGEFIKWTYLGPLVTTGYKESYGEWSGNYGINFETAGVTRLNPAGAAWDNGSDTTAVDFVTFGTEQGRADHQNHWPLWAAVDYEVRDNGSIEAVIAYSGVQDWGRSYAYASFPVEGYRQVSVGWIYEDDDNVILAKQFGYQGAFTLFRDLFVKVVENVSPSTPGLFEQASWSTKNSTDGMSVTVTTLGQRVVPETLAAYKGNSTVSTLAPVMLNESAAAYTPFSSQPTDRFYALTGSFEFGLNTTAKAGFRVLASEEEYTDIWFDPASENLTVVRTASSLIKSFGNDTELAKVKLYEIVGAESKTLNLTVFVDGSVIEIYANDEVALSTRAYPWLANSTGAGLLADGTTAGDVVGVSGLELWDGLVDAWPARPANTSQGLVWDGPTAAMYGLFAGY

Compound | Fructofuranosidase activity detected [1] | Hydrolytic activity observed [2] | Composition of the reaction mixture ([3]; reaction time 24 h) [grams/liter] | Composition of the reaction mixture ([3]; reaction time 140 h) [grams/liter] | Composition of the reaction mixture ([3]; reaction time 160 h) [grams/liter] | Composition of the reaction mixture [4, 7] [grams/liter] | Composition of the reaction mixture [4, 8] [grams/liter] | Composition of the reaction mixture [4, 9] [grams/liter] | Composition of the reaction mixture [4, 10] [grams/liter] | Composition of the reaction mixture [4, 11] [grams/liter] | Specific activity [1] [mU/μg] | Specific activity [2] [U/μg] | other results
OC[C@H]1O[C@H](O[C@H]2[C@H](O)[C@@H](O)C(O)O[C@@H]2CO)[C@H](O)[C@@H](O)[C@@H]1O (mixture of isomers) [maltose] | No activity was detected | No activity was observed |  |  |  |  |  |  |  |  |  |  | 
OC[C@H]1O[C@@](CO)(OC[C@@]2(O[C@H]3O[C@H](CO)[C@@H](O)[C@H](O)[C@H]3O)O[C@H](CO)[C@@H](O)[C@@H]2O)[C@@H](O)[C@@H]1O [1-kestose] |  |  | 9.2 | 24.8 | 33.5 | 23.9 | 25.8 | 10.3 | 21.3 | 21.9 | 1675 | 41 | 
O=C(CO)[C@@H](O)[C@H](O)[C@H](O)CO [fructose] |  |  | 19.0 | 63.5 | 65.1 | 56.5 | 76.0 | 36.8 | 40.9 | 41.2 |  |  | composition of the system at the end time [3]: 10.5%
O=C[C@H](O)[C@@H](O)[C@H](O)[C@H](O)CO [glucose] |  |  | 37.8 | 106.8 | 109.3 | 119.5 | 131.2 | 53.2 | 79.3 | 84.3 |  |  | composition of the system at the end time [3]: 17.6%
OC[C@H]1O[C@H](O[C@@H]2COC(O)(CO)[C@@H](O)[C@@H]2O)[C@H](O)[C@@H](O)[C@@H]1O (some centres unmarked) [leucrose] | No activity was detected | No activity was observed |  |  |  |  |  |  |  |  |  |  | 
OC[C@H]1O[C@H](O[C@H]2[C@H](O)[C@@H](O)[C@@H](O[C@H]3[C@H](O)[C@@H](O)[C@@H](O[C@H]4[C@H](O)[C@@H](O)[C@@H](O[C@H]5[C@H](O)[C@@H](O)[C@@H](O[C@H]6[C@H](O)[C@@H](O)[C@@H](O[C@H]7[C@H](O)[C@@H](O)C(O)O[C@@H]7CO)O[C@@H]6CO)O[C@@H]5CO)O[C@@H]4CO)O[C@@H]3CO)O[C@@H]2CO)[C@H](O)[C@@H](O)[C@@H]1O (some centres unmarked) [maltoheptose] | No activity was detected | No activity was observed |  |  |  |  |  |  |  |  |  |  | 
OC[C@H]1O[C@@](CO)(OC[C@H]2O[C@H](O[C@]3(CO)O[C@H](CO)[C@@H](O)[C@@H]3O)[C@H](O)[C@@H](O)[C@@H]2O)[C@@H](O)[C@@H]1O [neokestose] |  |  | 20.5 | 47.4 | 53.3 | 41.6 | 43.9 | 25.8 | 34.3 | 36.5 |  |  | maximum of neokestose obtained [5]: 75.1 g/L
OC[C@H]1O[C@@](CO)(OC[C@@]2(OC[C@@]3(O[C@H]4O[C@H](CO)[C@@H](O)[C@H](O)[C@H]4O)O[C@H](CO)[C@@H](O)[C@@H]3O)O[C@H](CO)[C@@H](O)[C@@H]2O)[C@@H](O)[C@@H]1O [nistose] |  |  |  |  |  |  |  |  |  |  | 502 | 13 | 
OC[C@H]1O[C@H](OC[C@H]2OC(O)(CO)[C@@H](O)[C@@H]2O)[C@H](O)[C@@H](O)[C@@H]1O (some centres unmarked) [palatinose] |  |  |  |  |  |  |  |  |  |  | 217 | 5 | 
OC[C@H]1O[C@H](OC[C@H]2O[C@H](O[C@]3(CO)O[C@H](CO)[C@@H](O)[C@@H]3O)[C@H](O)[C@@H](O)[C@@H]2O)[C@H](O)[C@@H](O)[C@H]1O [raffinose] |  |  |  |  |  |  |  |  |  |  | 335 | 8 | 
OC[C@H]1O[C@@](CO)(O[C@H]2O[C@H](CO)[C@@H](O)[C@H](O)[C@H]2O)[C@@H](O)[C@@H]1O [sucrose] |  |  | 513.4 | 357.5 | 338.9 | 358.4 | 323.1 | 474.0 | 424.2 | 416.1 | 62140 | 675 | composition of the system at the end time [3]: 54.6%; Km [6]: 4 mM; Vmax [6]: 947 μg glucose min^−1; kcat [6]: 2.35 s⁻¹
maltotriose | No activity was detected | No activity was observed |  |  |  |  |  |  |  |  |  |  | 
